Measured values from ChEMBL document CHEMBL1201862, “PubChem BioAssay data set” (2004).
Calls of active or inactive are those of the source.

How the values were obtained:
[1] = biological target: T1, RNA-binding protein pos-1 (Caenorhabditis elegans, UniProt G5EF15); experiment: disruptors of C. elegans POS-1 RNA interaction – biochemical, fluorescence polarization, dose response (AID 1964);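 also: purified POS-1 fused to maltose binding protein made in E. coli; potency of compounds blocking POS-1 binding to fluorescent RNA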
T1 sequence (G5EF15 whole entry): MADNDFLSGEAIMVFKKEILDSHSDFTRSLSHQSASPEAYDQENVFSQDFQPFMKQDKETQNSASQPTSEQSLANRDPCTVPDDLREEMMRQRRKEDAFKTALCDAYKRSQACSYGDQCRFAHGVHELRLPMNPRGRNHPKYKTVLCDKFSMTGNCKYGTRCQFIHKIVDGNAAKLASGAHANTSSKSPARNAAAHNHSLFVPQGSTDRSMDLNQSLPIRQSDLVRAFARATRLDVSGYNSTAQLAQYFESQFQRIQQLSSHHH

[2] = biological target: T2, Apoptotic protease-activating factor 1 (Homo sapiens, UniProt O14727); format: functional
T2 sequence (O14727 whole entry): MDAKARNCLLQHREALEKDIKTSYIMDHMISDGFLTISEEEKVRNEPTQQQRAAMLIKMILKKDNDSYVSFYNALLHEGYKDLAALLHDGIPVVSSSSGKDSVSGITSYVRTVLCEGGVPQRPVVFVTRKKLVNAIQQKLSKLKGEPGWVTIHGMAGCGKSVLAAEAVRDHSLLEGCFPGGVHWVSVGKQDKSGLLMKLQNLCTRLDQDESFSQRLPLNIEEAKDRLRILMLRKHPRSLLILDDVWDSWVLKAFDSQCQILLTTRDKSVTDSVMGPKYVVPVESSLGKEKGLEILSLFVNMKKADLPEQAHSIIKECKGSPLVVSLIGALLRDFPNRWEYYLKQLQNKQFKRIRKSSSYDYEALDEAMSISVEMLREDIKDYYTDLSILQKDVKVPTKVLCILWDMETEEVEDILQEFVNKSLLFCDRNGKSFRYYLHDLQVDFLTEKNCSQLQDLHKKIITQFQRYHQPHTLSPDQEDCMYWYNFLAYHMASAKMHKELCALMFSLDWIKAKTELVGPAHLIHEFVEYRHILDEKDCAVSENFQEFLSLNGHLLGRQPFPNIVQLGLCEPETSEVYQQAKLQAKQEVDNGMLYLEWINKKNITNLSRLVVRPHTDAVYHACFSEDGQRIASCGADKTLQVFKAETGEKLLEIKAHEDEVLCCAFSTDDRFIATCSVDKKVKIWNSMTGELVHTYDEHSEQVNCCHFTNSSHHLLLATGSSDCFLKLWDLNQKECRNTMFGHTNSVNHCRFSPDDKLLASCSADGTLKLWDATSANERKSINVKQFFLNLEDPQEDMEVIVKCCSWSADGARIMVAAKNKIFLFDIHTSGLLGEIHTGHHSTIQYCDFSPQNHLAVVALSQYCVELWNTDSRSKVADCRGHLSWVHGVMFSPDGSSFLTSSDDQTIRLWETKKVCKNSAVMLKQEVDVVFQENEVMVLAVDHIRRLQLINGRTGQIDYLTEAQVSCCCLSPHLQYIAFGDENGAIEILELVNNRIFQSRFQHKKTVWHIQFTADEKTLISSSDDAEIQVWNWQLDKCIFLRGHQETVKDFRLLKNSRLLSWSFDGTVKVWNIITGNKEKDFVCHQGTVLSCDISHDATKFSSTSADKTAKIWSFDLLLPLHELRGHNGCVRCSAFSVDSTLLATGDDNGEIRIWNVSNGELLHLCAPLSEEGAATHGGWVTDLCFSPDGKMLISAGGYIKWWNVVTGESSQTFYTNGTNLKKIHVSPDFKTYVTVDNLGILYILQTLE

[3] = biological target: T3, Zinc finger protein mex-5 (Caenorhabditis elegans, UniProt Q9XUB2); experiment: potency of MEX-5 RNA-binding blockers – biochemical, C. elegans, fluorescence polarization, dose response (AID 1960)
T3 sequence (Q9XUB2 whole entry): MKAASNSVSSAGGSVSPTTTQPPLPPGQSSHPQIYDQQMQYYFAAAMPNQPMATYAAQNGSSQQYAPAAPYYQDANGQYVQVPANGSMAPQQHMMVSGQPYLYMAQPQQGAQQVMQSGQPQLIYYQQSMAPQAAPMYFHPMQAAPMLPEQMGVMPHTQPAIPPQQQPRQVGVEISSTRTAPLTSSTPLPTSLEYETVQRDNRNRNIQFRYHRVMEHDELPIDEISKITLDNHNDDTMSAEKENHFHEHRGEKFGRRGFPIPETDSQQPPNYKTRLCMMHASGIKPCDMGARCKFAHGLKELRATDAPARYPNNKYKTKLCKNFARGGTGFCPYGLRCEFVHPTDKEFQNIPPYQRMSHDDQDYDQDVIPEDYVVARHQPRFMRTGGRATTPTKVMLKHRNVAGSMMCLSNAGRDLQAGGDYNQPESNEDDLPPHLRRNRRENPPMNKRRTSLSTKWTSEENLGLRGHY

Beta-lactamase [4] = biological target: T4, Beta-lactamase (Salmonella choleraesuis (strain SC-B67), UniProt Q5J463)
T4 sequence (Q5J463 whole entry): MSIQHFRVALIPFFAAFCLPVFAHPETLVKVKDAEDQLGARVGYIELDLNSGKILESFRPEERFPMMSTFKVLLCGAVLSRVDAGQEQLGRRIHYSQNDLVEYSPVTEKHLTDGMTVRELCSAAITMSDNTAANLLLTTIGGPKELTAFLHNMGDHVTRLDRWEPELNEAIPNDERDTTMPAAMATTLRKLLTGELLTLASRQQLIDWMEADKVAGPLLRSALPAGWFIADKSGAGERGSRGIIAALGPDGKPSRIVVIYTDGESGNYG

Beta-lactamase [5] = biological target: T5, Beta-lactamase (Pseudomonas aeruginosa, UniProt Q79MP6)
T5 sequence (Q79MP6 whole entry, the tested form may be a part): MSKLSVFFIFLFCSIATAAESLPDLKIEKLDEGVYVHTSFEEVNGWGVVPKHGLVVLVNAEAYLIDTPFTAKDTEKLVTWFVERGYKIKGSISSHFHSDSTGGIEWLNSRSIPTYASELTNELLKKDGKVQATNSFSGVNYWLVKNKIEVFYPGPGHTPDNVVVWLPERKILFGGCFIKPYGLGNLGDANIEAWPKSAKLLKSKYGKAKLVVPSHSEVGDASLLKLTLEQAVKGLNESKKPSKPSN

[6] = biological target: T6, Carboxy-terminal domain RNA polymerase II polypeptide A small phosphatase 1 (Homo sapiens, UniProt Q9GZU7); experiment: CTDSP1 inhibitors, concentration-response, biochemical, absorbance readout, ultra-high-throughput screen actives (AID 540297); format: functional
T6 sequence (Q9GZU7 whole entry): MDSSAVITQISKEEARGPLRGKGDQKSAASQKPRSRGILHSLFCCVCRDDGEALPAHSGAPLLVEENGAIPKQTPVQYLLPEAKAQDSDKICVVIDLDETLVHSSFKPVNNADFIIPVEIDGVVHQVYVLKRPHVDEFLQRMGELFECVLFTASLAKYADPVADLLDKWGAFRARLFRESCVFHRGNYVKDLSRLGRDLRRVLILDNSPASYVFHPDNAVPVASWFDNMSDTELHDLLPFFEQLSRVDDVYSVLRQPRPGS

[7] = biological target: Arf-GAP with SH3 domain, ANK repeat and PH domain-containing protein 1 (Homo sapiens, UniProt Q9ULH1); format: functional;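 also: biochemical fluorescence polarization dose–response screen measuring inhibition of ASAP1; ASAP1 GAP domain stimulating GTP hydrolysis by truncated human ARF1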
Arf-GAP with SH3 domain, ANK repeat and PH domain-containing protein 1, sequence (Q9ULH1 whole entry, the tested form may be a part): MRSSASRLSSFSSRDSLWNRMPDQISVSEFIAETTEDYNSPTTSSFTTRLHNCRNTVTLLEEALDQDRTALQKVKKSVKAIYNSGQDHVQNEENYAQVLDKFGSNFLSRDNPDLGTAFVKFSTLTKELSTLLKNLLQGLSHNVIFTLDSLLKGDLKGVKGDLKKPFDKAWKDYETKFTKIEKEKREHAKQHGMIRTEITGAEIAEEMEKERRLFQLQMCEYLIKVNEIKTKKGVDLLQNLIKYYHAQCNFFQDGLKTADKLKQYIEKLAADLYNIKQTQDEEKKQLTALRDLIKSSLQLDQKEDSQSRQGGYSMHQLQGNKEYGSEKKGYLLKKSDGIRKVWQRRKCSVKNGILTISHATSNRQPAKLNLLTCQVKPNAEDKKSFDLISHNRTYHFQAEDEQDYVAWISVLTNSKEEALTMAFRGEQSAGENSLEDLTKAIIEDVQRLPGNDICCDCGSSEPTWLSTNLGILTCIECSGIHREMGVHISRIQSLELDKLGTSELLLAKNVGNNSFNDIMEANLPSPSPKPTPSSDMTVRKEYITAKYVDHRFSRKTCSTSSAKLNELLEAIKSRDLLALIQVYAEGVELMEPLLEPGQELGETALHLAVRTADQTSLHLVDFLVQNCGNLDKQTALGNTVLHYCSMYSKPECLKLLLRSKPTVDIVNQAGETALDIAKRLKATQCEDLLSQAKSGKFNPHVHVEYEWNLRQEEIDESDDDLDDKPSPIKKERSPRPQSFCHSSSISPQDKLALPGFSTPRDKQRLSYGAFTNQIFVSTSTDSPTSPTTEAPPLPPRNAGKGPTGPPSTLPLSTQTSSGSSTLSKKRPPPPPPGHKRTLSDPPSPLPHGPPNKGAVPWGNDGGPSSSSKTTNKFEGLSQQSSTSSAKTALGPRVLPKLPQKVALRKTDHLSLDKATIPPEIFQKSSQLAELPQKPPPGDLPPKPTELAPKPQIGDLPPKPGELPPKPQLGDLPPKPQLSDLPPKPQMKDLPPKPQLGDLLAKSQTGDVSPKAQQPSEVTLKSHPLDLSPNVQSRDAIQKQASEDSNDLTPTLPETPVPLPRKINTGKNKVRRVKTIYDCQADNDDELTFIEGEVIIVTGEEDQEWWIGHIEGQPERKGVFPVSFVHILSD

[8] = biological target: T7, Voltage-gated N-type calcium channel alpha-1B subunit/Amyloid beta A4 precursor protein-binding family A member 1 (Homo sapiens, UniProt Q00975+Q02410); format: protein assay
T7 sequence (Q00975 whole entry): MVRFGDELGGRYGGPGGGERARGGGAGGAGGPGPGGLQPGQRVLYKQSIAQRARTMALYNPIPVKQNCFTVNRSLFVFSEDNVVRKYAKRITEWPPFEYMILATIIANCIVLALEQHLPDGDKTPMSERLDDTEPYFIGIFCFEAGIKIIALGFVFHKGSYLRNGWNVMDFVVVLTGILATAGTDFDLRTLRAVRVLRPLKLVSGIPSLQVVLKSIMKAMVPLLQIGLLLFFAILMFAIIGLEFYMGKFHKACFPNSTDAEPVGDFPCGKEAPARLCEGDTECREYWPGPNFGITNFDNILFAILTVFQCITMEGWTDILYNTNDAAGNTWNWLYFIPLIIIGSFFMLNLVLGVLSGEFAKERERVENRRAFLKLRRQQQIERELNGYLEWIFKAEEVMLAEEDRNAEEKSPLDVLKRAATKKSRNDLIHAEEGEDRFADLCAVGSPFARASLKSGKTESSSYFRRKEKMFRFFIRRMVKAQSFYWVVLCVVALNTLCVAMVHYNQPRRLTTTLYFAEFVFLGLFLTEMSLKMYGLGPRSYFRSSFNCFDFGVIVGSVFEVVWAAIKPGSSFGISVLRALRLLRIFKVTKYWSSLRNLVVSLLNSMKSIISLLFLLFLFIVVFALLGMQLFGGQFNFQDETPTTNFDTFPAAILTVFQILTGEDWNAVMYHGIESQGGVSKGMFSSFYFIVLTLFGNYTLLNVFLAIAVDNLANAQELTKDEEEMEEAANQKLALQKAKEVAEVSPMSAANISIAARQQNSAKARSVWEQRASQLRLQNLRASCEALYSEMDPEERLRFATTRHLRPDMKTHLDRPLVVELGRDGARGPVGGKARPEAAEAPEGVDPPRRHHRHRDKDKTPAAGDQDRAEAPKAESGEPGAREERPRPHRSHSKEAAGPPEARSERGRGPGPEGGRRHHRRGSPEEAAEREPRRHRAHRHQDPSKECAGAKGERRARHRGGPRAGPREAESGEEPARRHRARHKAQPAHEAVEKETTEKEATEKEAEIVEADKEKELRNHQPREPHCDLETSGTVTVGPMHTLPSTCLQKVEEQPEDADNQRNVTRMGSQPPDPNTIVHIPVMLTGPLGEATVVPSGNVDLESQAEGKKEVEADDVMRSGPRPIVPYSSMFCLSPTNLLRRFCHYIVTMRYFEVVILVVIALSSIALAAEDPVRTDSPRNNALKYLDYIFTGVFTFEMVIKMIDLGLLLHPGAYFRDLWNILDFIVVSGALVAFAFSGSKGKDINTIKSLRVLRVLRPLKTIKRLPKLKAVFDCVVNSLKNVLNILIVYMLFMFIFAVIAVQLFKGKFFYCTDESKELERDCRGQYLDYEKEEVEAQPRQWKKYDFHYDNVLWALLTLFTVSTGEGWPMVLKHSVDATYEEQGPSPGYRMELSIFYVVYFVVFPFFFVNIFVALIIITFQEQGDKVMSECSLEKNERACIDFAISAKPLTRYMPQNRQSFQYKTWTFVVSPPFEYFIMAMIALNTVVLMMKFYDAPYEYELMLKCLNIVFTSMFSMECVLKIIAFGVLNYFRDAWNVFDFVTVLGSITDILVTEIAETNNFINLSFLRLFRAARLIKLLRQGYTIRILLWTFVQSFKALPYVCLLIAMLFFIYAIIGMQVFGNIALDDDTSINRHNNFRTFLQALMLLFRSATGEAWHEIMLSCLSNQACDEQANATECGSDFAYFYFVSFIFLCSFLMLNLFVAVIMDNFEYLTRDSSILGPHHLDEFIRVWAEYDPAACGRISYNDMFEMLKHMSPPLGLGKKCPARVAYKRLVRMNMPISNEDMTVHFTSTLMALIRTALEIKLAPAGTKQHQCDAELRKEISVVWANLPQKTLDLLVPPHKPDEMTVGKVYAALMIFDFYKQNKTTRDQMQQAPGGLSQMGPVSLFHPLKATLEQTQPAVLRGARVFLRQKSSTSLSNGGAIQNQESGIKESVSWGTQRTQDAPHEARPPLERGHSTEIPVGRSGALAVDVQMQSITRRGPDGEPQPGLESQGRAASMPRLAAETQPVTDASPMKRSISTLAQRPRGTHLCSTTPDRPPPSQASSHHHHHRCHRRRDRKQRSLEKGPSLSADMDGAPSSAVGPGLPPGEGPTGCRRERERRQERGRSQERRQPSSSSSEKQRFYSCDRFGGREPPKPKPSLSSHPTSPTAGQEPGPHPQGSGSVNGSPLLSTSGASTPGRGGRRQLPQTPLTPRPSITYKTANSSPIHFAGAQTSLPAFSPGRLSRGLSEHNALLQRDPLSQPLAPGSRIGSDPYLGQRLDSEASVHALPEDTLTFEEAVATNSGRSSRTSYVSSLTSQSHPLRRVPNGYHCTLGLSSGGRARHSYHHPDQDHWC
T7 sequence (Q02410 whole entry): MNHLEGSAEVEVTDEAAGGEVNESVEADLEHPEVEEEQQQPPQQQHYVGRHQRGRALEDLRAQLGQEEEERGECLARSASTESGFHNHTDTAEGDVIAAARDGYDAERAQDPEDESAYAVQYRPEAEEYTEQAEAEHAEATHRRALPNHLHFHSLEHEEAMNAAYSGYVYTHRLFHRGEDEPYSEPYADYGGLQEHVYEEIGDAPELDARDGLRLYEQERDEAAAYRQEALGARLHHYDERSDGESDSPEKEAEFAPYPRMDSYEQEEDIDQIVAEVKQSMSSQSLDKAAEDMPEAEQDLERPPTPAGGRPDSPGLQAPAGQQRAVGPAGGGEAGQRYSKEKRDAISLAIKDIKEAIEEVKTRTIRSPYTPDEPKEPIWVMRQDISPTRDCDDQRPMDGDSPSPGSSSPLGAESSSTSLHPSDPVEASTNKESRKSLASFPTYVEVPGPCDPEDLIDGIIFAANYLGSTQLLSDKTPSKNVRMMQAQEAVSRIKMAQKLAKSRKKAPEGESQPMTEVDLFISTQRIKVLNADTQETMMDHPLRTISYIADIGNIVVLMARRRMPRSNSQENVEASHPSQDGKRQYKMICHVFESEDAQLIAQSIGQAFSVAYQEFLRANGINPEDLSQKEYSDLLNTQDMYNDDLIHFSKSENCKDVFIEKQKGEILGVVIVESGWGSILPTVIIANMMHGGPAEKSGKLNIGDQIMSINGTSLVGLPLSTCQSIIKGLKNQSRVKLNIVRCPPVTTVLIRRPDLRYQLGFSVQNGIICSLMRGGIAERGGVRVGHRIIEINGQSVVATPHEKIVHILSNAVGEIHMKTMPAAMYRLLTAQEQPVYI

[9] = biological target: 26S proteasome non-ATPase regulatory subunit 14 (Homo sapiens, UniProt O00487); experiment: inhibition of proteasome subunit RPN11 – biochemical, fluorescence polarization, uHTS hits, confirmation (AID 602368); format: functional
[10] = biological target: 72 kDa type IV collagenase (Homo sapiens, UniProt P08253); experiment: Dose Response validation of uHTS RPN11 inhibitor hits using a MMP-2 Fluorescence assay.; format: functional
Prothrombin = Prothrombin (Bos taurus, UniProt P00735); experiment: thrombin protease inhibitors – biochemical, fluorescence polarization, uHTS hits, dose response (AID 602369); format: functional
[11] = biological target: T7, Voltage-gated N-type calcium channel alpha-1B subunit/Amyloid beta A4 precursor protein-binding family A member 1; format: protein assay; remark: listed apart in the source
cells [12] = format: functional, cell-based
cells [13] = format: functional, cell-based; remark: listed apart in the source
[14] = biological target: Fructose-bisphosphate aldolase (Mycobacterium tuberculosis, UniProt P9WQA3); experiment: Fluorescence-based biochemical high throughput dose response assay for inhibitors of the fructose-bisphosphate aldolase (FBA) of M. tuberculosis.; format: functional
Beta-lactamase [15] = biological target: T5, Beta-lactamase; experiment: […] counterscreen for selective VIM-2 inhibitors: dose response biochemical high throughput screening assay to identify inhibitors of IMP-1 metallo-beta-lactamase.
Beta-lactamase [16] = biological target: T5, Beta-lactamase; experiment: inhibition of IMP-1 beta-lactamase activity – biochemical, epi-absorbance, selectivity assay for VIM-2 inhibitor project, dose response (AID 1920)
Beta-lactamase [17] = biological target: T4, Beta-lactamase; experiment: Epi-absorbance-based counterscreen for selective VIM-2 inhibitors: dose response biochemical high throughput screening assay to identify inhibitors of TEM-1 serine-beta-lactamase.

O=Cc1ccc2cccc3c2c1NC(C(F)(F)F)=N3
EC50 [1]: 27.6 µM (active) | IC50 [2]: 9.2 µM (active) | EC50 [3]: 24.8 µM (active) | IC50 (Beta-lactamase [4]): 27.9 µM (inactive) | IC50 (Beta-lactamase [5]): 32.6 µM (inactive)

Cc1ccc(C(=O)Nc2cccc(NC(=O)c3ccc(C)c([N+](=O)[O-])c3)n2)cc1[N+](=O)[O-]
IC50 [6]: 4.55 µM (active) | IC50 [7]: 41.9 µM (inactive)

COC(=O)c1ccc(NC(=O)c2ccc(NC(=O)c3ccco3)cc2)cc1
IC50 [8]: > 50 µM (inactive) | IC50 [9]: 23 µM (active) | IC50 [10]: > 100 µM (inactive) | IC50 [7]: 25.8 µM (inactive) | IC50 (Prothrombin): 73 µM (active) | IC50 [11]: 5.25 µM (active)

CCCCn1c(=O)[nH]c(=O)c2c(C(=O)OCC)cc(-c3cccs3)nc21
EC50 (cells [12]): > 350 µM (not active) | EC50 (cells [13]): > 350 µM (not active) | IC50 [14]: 0.582 µM (active)

CC(C)Cn1c(S)nnc1-c1ccco1
IC50 (Beta-lactamase [15]): > 59.6 µM (inactive) | IC50 (Beta-lactamase [16]): > 59.6 µM (inactive) | IC50 (Beta-lactamase [17]): > 59.6 µM (inactive)

Cc1nn(CCc2nnc(S)n2-c2cccc(Cl)c2)c(C)c1[N+](=O)[O-]
IC50 (Beta-lactamase [15]): > 59.6 µM (inactive) | IC50 (Beta-lactamase [16]): > 59.6 µM (inactive) | IC50 (Beta-lactamase [17]): > 59.6 µM (inactive)
